Results: patent US7037902B2, “Affinity small molecules for the EPO receptor” (Receptron, Inc., priority 2002, dated 2006)
Entries after “also recorded” stand apart in the source; their conditions may differ. One block for each compound: values may come before it.

Columns and labels:
human bone marrow cells = experiment: formation of erythroid colonies from human bone marrow in methylcellulose; assay type: cell-based
Description: (§1) Mouse or human bone marrow cells were stimulated in methylcellulose for 7 days (mouse) or 14 days (human) with non-peptide EPO-R modulators. Formation of erythroid colonies was observed. (See FIGS. 6 to 8)
(1) Dilute human bone marrow 1:1 with sterile PBS. (2) Slowly layer bone marrow into 50 ml tubes containing 20 ml of LSM Lymphocyte separation medium (ICN/Cappel—cat #50494). 50 ml bone marrow will yield 2 tubes. (3) Spin tubes at 2000 rpm for 30 minutes with brake off. (4) Slowly take out the middle layer using a 10 ml pipette and transfer into a new 50 ml tube. (5) Add PBS+0.5% BSA+5 mM EDTA to tube for washing. (6) Spin tube for 5 minutes at speed 4 with brake on. (7) Repeat wash step 2 more times. (8) After 3rd wash, resuspend pellet in SF Iscoves' MDM medium. (9) Count by diluting cells in 3% acetic acid. (10) Dilute cells to desired concentration (5×10^5 cells/ml) and seed onto methylcellulose.
(1) Tubes containing 3.0 ml of methylcellulose medium (Stemcell Technology, cat # H4230) supplemented with 50 ng/ml hSCF are prepared. (Alternatively the methylcellulose could be supplemented with 50 ng/ml hSCF, 20 ng/ml of hIL-3 and hIL-6). (2) Compounds or EPO of desired concentrations are added to the tubes. “Control” tubes or tubes that will receive EPO are supplemented with DMSO to a final concentration of 0.16%. […] Colonies are scored on day twelve.

TF-1 cells = experiment: cell proliferation; assay type: cell-based; conditions: 96 hours
Description: TF-1 cells were stimulated for 96 hours with different non-peptide EPO-R modulators, and it was observed that the non-peptide EPO binding molecules stimulated cellular proliferation in dose-responsive manner and to the extent of the natural hormone.

TF-1 and UT-7 cells = experiment: biological testing in cell lines (cell proliferation and cell signaling); assay type: cell-based; conditions: biological testing in cell line
From the text: Compounds identified in the initial screen were further tested for their biological activity in two assays: a cell proliferation assay and a cell signaling assay in TF-1 and UT-7 cells. The hit rate in cell proliferation was 0.16%; hit rate in cell signaling was 0.25%.
Compounds identified in the initial screen were further tested for their biological activity in two assays: a cell proliferation assay and a cell signaling assay in TF-1 cells. The hit rate in cell proliferation was 0.16%; hit rate in cell signaling was 0.25%.

mouse bone marrow cells = experiment: formation of erythroid colonies from mouse bone marrow in methylcellulose; assay type: cell-based
Description: as §1
Bone marrow cells were isolated from mouse femurs. Cells were washed twice with PBS and resuspended to a density of 6.5×10^6 cells/ml in media. 300 μl (6.5×10^5/ml) of cells were mixed with 1.5 ml of methylcellulose media (Stemcell Technology) to which the desired concentration of compound or the EPO was added. The mixture was poured onto 35 mm dishes; all the conditions are performed in duplicates. The incubation was for […] at 37° C., 5% CO2. The colonies were scored on day seven.
After thawing methylcellulose overnight, the next morning, 20 ml of Iscove's MDM+2%FBS is added to the bottle to achieve 100 ml total. The bottle is mixed for at least 30 seconds and settled for about 10 minutes. 10 cc syringes are used to aliquot 3 ml per minisorp tube.

[1] = tested on: EPO-Receptor down stream signaling pathway; experiment: in vitro signaling (phosphorylation of EPO-R, JAK2, STAT1, STAT3, STAT5); assay type: cell-based; conditions: UT-7 cells
Description: UT-7 cells were grown in Minimal Essential Medium Alpha (MEM-α) containing 20% FBS, 1.5 g/L NaHCO3, 5 ng/ml GM-CSF, and 100U Penicillin/100 μg/ml Streptomycin Sulfate (“P/S”), in T150 flasks (60 ml/flask) at 37° C., 5% CO2 to a density of no more than 5×10^5 cells/ml. The cells were starved overnight in MEM-α containing 10% FBS, 1.5 g/L NaHCO3 and P/S in T150 flasks (60 ml/flask) at a density of 5×10^5 cells/ml, in 5% CO2, 37° C. The cells were then centrifuged in a swinging-bucket rotor at 200×g for 5 minutes at room temperature. The supernatant was removed, and the cells pooled into one 50 ml conical tube. The cells were washed twice with serum-free medium (MEM-α containing 1.5 g/L NaHCO3 and P/S). After the last wash, the cells were resuspended to a density of 1×10^7 cells/ml in serum-free medium. The cells were then placed in 15 ml conical tubes in 1 ml aliquots and incubated with the caps loosened for 1 hour at 37° C., 5% CO2. Every 10 minutes, the lower portion of each tube was tapped (flicked) several times to prevent the cells from settling (please note, this step is very important!)
It was also observed that EPO-R was phosphorylated when stimulated with non-peptide EPO-R modulators. (See FIG. 4) […]

Bcl-xl protein = experiment: up-regulation of Bcl-xl expression (immunoprecipitation, western blot); assay type: cell-based
Description: When the subject compounds were tested for anti-apoptotic effect was evaluated, these antibodies were used: Anti-Bcl-X1/s antibody (Santa Cruz Biotechnology, SC-1041), Anti-Bcl-X1 antibody (Santa Cruz Biotechnology, SC8392)
A number of molecules of the subject invention were evaluated in in vitro systems that reflect the condition of cerebral ischemia and metabolic stress. Firstly, it is known that one of the mechanisms by which EPO prevents neuronal apoptosis is by up-regulating the expression levels of Bcl-x1 protein, which is a well-described anti-apoptotic protein. Thus, cells-lines that are known to be EPO responsive (UT-7 and TF-1, used in previous studies) were used as a cellular system to examine the small molecules' anti-apoptotic activity through EPO-R.
The evaluation was performed by starving the cells, stimulating the cells with compounds at appropriate concentrations (or no stimulation for control samples) and immunoprecipitating the cell lysates with antibody specific to both forms (short and long) of Bcl-x1 protein. The amount of Bcl-x1 (long protein form, known to have anti-apoptotic activity) protein was evaluated by western blot analysis.

P-19 cells = experiment: cell survival of P-19 cells after withdrawal of serum; assay type: cell-based; conditions: P19 cells; treated 24 hours before, serum withdrawn for 48 hours
Description: Experiments were performed according to the described protocol. The anti-apoptotic effect of the subject small molecules was evaluated in P-19 cells (a neural-like embryonal carcinoma cell line) that undergo apoptosis upon withdrawal of serum. Briefly, cells were treated with small molecules for 24 hours prior to serum withdrawal. Serum was withdrawn for 48 hours in the presence or absence of a subject small molecule (EM5 and E5A24). At the end of that period, cell survival was evaluated. […] This Figure is representative of the experiment and of the subject small molecules. The experiments were performed according to literature procedures (Siren et.al., Proc. Nat. Acad. Sci. 98, 4044, 2001). Cell survival was determined according to the protocol described for cellular proliferation.

cortical neurons = experiment: glutamate-induced neuronal death in cultured cortical neurons; assay type: cell-based, rats; conditions: 300 μM glutamate for 24 hours
Description: Primary cultured cells were used as a model to evaluate the subject small molecule effect on CNS. Glutamate neurotoxicity can be most directly studied using neurons prepared from the brain at the late embryonic stage and subsequently cultured for maturation. To examine the effect of the subject small molecules (E5A24 and E5A29) on glutamate-induced neuronal death, cortical neurons isolated from embryonic day 18 rats, were cultured for 10 days. Subsequently, neurons were treated for 24 hours with or without the subject small molecules, and further exposed to 300 μM glutamate for 24 hours. After glutamate was washed out, the cells were cultured for another 24 hours. During the glutamate challenge and subsequent culture, the subject small molecules were absent. Finally, the cell viability was examined. […] Experiments were performed according to the literature (Morishita et. al., Neuroscience 76, 105, 1997).

activation of EPO-R [1]: activation of EPO-R
SMILES: Cc1ccc(Cl)cc1Nc1nc2nc(C)c(NCC3CC3)cn2n1 [Cmpnd E5]
erythroid colony formation (CFU-e) (human bone marrow cells): stimulate CFU-e formation to the same extent as EPO | cellular proliferation (TF-1 cells): proliferative effect | maximum activity compared to EPO natural hormone (TF-1 and UT-7 cells): maximum activity comparable to that of the maximum activity of EPO | erythroid colony formation (CFU-e) (mouse bone marrow cells): stimulate CFU-e formation to the same extent as EPO

SMILES: Cn1ncc(S(=O)Oc2ccccc2)c(Cl)c1=O (centres unmarked) [Cmpnd E6]
erythroid colony formation (CFU-e) (human bone marrow cells): stimulate CFU-e formation to the same extent as EPO | maximum activity compared to EPO natural hormone (TF-1 and UT-7 cells): maximum activity comparable to that of the maximum activity of EPO | erythroid colony formation (CFU-e) (mouse bone marrow cells): stimulate CFU-e formation to the same extent as EPO

SMILES: Cc1cc(NCC2CC2)n2nc(Nc3cc(Cl)ccc3C)nc2n1 [EM5]
Bcl-xl expression (Bcl-xl protein; TF-1 cells): up-regulation of Bcl-xl expression | Bcl-xl expression (Bcl-xl protein; UT-7 cells): up-regulation of Bcl-xl expression | Bcl-x1 protein up-regulation (Bcl-xl protein; both cell lines (UT-7 and TF-1)): induced up-regulation of Bcl-x1 protein in a dose-responsive manner | cell viability / protection from apoptosis after withdrawal of serum (P-19 cells): protect cells from apoptosis; also recorded: increased cell viability

SMILES: Cc1n[nH]c2c1C(c1ccco1)C1=C(CC(C)(C)CC1=O)N2 (centres unmarked) [Cmpnd E5A29]
cell survival of cortical neurons after glutamate challenge (cortical neurons): prevented glutamate induced neuronal death in a dose-responsive manner; also recorded: increased cell survival | increase of cell survival (cortical neurons; cortical neurons): 60%
